Blank lines part the entries; values can stand above or below the compound they belong to.
Tested on: 252836-082-R-J2-PDC tumor spheroids, viability
Experiment: Anticancer human tumor 252836-082-R-J2-PDC patient-derived head and neck squamous cell carcinoma cell line growth inhibition [PI3K]
Settings: spheroids with HUVEC and MSC; for IC50: curve of first compound; for viability, T/C: stronger effect = lower value
How it was run: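 Complex 3D spheroids (cancer cells + endothelial HUVEC + mesenchymal stem cells); drug pairs of targeted agent x inavolisib/alpelisib/duvelisib/copanlisib; half-log series from ~Cmax, max 10 microM if Cmax unknown; endpoint viability.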

[1] = second compound 0.0316 µM, first compound 0.0316 µM
[2] = second compound 0.0316 µM, first compound 0.1 µM
[3] = second compound 0.0316 µM, first compound 0.316 µM
[4] = second compound 0.0316 µM, first compound 1 µM
[5] = second compound 0.0316 µM, first compound 3.16 µM
[6] = second compound 0.0316 µM, first compound 10 µM
[7] = second compound 0.1 µM, first compound 0.0316 µM
[8] = second compound 0.1 µM, first compound 0.1 µM
[9] = second compound 0.1 µM, first compound 0.316 µM
[10] = second compound 0.1 µM, first compound 1 µM
[11] = second compound 0.1 µM, first compound 3.16 µM
[12] = second compound 0.1 µM, first compound 10 µM
[13] = second compound 0.316 µM, first compound 0.0316 µM
[14] = second compound 0.316 µM, first compound 0.1 µM
[15] = second compound 0.316 µM, first compound 0.316 µM
[16] = second compound 0.316 µM, first compound 1 µM
[17] = second compound 0.316 µM, first compound 3.16 µM
[18] = second compound 0.316 µM, first compound 10 µM
[19] = second compound 1 µM, first compound 0.0316 µM
[20] = second compound 1 µM, first compound 0.1 µM
[21] = second compound 1 µM, first compound 0.316 µM
[22] = second compound 1 µM, first compound 1 µM
[23] = second compound 1 µM, first compound 3.16 µM
[24] = second compound 1 µM, first compound 10 µM
[25] = second compound 3.16 µM, first compound 0.0316 µM
[26] = second compound 3.16 µM, first compound 0.1 µM
[27] = second compound 3.16 µM, first compound 0.316 µM
[28] = second compound 3.16 µM, first compound 1 µM
[29] = second compound 3.16 µM, first compound 3.16 µM
[30] = second compound 3.16 µM, first compound 10 µM
[31] = second compound 10 µM, first compound 0.0316 µM
[32] = second compound 10 µM, first compound 0.1 µM
[33] = second compound 10 µM, first compound 0.316 µM
[34] = second compound 10 µM, first compound 1 µM
[35] = second compound 10 µM, first compound 3.16 µM
[36] = second compound 10 µM, first compound 10 µM
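Also: spheroids exposed to agents for seven days before readout.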
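For viability, T/C in this document: percent of vehicle DMSO control viability so 100% = untreated growth.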

IC50 (second compound 0.0316 µM): > 10 µM
IC50 (second compound 0.1 µM): > 10 µM
IC50 (second compound 0.316 µM): > 10 µM
IC50 (second compound 1 µM): > 10 µM
IC50 (second compound 3.16 µM): > 10 µM
IC50 (second compound 10 µM): 3.37 µM
Structure (SMILES): C#Cc1c(F)ccc2cc(O)cc(-c3ncc4c(N5CC6CCC(C5)N6)nc(OCC56CCCN5CC(F)C6)nc4c3F)c12 (stereo not drawn) + CC(Nc1ncnc2nc[nH]c12)c1cc2cccc(Cl)c2c(=O)n1-c1ccccc1
viability, T/C [1]: 90%
viability, T/C [2]: 78.4%
viability, T/C [3]: 82.8%
viability, T/C [4]: 86.4%
viability, T/C [5]: 82%
viability, T/C [6]: 63.6%
viability, T/C [7]: 90.8%
viability, T/C [8]: 87%
viability, T/C [9]: 90.8%
viability, T/C [10]: 97.7%
viability, T/C [11]: 82.6%
viability, T/C [12]: 64.8%
viability, T/C [13]: 96.1%
viability, T/C [14]: 92.9%
viability, T/C [15]: 90.1%
viability, T/C [16]: 87.5%
viability, T/C [17]: 73.5%
viability, T/C [18]: 65.4%
viability, T/C [19]: 83.3%
viability, T/C [20]: 75.7%
viability, T/C [21]: 88.6%
viability, T/C [22]: 78.4%
viability, T/C [23]: 88.4%
viability, T/C [24]: 66.8%
viability, T/C [25]: 84.7%
viability, T/C [26]: 67.6%
viability, T/C [27]: 73.7%
viability, T/C [28]: 75%
viability, T/C [29]: 69%
viability, T/C [30]: 62.6%
viability, T/C [31]: 54.5%
viability, T/C [32]: 58.2%
viability, T/C [33]: 53.9%
viability, T/C [34]: 49.4%
viability, T/C [35]: 55.6%
viability, T/C [36]: 44.9%

IC50 (second compound 0.0316 µM): > 10 µM
IC50 (second compound 0.1 µM): > 10 µM
IC50 (second compound 0.316 µM): > 10 µM
IC50 (second compound 1 µM): > 10 µM
IC50 (second compound 3.16 µM): > 10 µM
IC50 (second compound 10 µM): 6.58 µM
Structure (SMILES): Cn1nccc1Nc1nccc(-c2ccn(C(CO)c3ccc(Cl)c(F)c3)c(=O)c2)n1 (stereo not drawn) + CC(Nc1ncnc2nc[nH]c12)c1cc2cccc(Cl)c2c(=O)n1-c1ccccc1
viability, T/C [1]: 83.3%
viability, T/C [2]: 99.5%
viability, T/C [3]: 91.9%
viability, T/C [4]: 99.6%
viability, T/C [5]: 93.3%
viability, T/C [6]: 66.2%
viability, T/C [7]: 100%
viability, T/C [8]: 94.8%
viability, T/C [9]: 91.3%
viability, T/C [10]: 95.9%
viability, T/C [11]: 95.9%
viability, T/C [12]: 67.2%
viability, T/C [13]: 97.2%
viability, T/C [14]: 94.5%
viability, T/C [15]: 93.7%
viability, T/C [16]: 81.1%
viability, T/C [17]: 91.9%
viability, T/C [18]: 76%
viability, T/C [19]: 75.4%
viability, T/C [20]: 82.3%
viability, T/C [21]: 91.3%
viability, T/C [22]: 92.6%
viability, T/C [23]: 81.5%
viability, T/C [24]: 56.5%
viability, T/C [25]: 72.4%
viability, T/C [26]: 86.2%
viability, T/C [27]: 77.5%
viability, T/C [28]: 80.5%
viability, T/C [29]: 80.9%
viability, T/C [30]: 52.9%
viability, T/C [31]: 62%
viability, T/C [32]: 64.8%
viability, T/C [33]: 78.9%
viability, T/C [34]: 73.4%
viability, T/C [35]: 62.4%
viability, T/C [36]: 41.8%

IC50 (second compound 0.00316 µM): > 10 µM
IC50 (second compound 0.01 µM): > 10 µM
IC50 (second compound 0.0316 µM): > 10 µM
IC50 (second compound 0.1 µM): < 0.0316 µM
IC50 (second compound 0.316 µM): < 0.0316 µM
IC50 (second compound 1 µM): < 0.0316 µM
Structure (SMILES): C[C@@H](NC(=O)c1ncnc(N)c1Cl)c1ncc(C(=O)Nc2cc(C(F)(F)F)c(Cl)cn2)s1 + COc1c(OCCCN2CCOCC2)ccc2c3n(c(=NC(=O)c4cnc(N)nc4)nc12)CCN3
viability, T/C (second compound 0.00316 µM, first compound 0.0316 µM): 89.6%
viability, T/C (second compound 0.00316 µM, first compound 0.1 µM): 77.8%
viability, T/C (second compound 0.00316 µM, first compound 0.316 µM): 104%
viability, T/C (second compound 0.00316 µM, first compound 1 µM): 84.7%
viability, T/C (second compound 0.00316 µM, first compound 3.16 µM): 94.5%
viability, T/C (second compound 0.00316 µM, first compound 10 µM): 85.8%
viability, T/C (second compound 0.01 µM, first compound 0.0316 µM): 81%
viability, T/C (second compound 0.01 µM, first compound 0.1 µM): 71.4%
viability, T/C (second compound 0.01 µM, first compound 0.316 µM): 79.5%
viability, T/C (second compound 0.01 µM, first compound 1 µM): 77.5%
viability, T/C (second compound 0.01 µM, first compound 3.16 µM): 72.4%
viability, T/C (second compound 0.01 µM, first compound 10 µM): 84.2%
viability, T/C [1]: 69.6%
viability, T/C [2]: 66.1%
viability, T/C [3]: 80.5%
viability, T/C [4]: 56%
viability, T/C [5]: 62.1%
viability, T/C [6]: 59.6%
viability, T/C [7]: 37.6%
viability, T/C [8]: 39.1%
viability, T/C [9]: 39.9%
viability, T/C [10]: 37%
viability, T/C [11]: 43.3%
viability, T/C [12]: 32.1%
viability, T/C [13]: 18.4%
viability, T/C [14]: 16.6%
viability, T/C [15]: 21%
viability, T/C [16]: 17.7%
viability, T/C [17]: 17.2%
viability, T/C [18]: 9.8%
viability, T/C [19]: 5.39%
viability, T/C [20]: 5.07%
viability, T/C [21]: 5.62%
viability, T/C [22]: 6.77%
viability, T/C [23]: 5.91%
viability, T/C [24]: 1.42%

IC50 (second compound 0.0316 µM): < 0.0316 µM
IC50 (second compound 0.1 µM): < 0.0316 µM
IC50 (second compound 0.316 µM): < 0.0316 µM
IC50 (second compound 1 µM): < 0.0316 µM
IC50 (second compound 3.16 µM): < 0.0316 µM
IC50 (second compound 10 µM): < 0.0316 µM
Structure (SMILES): CC1(C)CCC(Nc2ncc(C(F)(F)F)c(-c3c[nH]c4c(P(C)(C)=O)c(C#N)ccc34)n2)CN1 (stereo not drawn) + Cc1nc(NC(=O)N2CCCC2C(N)=O)sc1-c1ccnc(C(C)(C)C(F)(F)F)c1
viability, T/C [1]: 39.2%
viability, T/C [2]: 27.6%
viability, T/C [3]: 33.3%
viability, T/C [4]: 30.5%
viability, T/C [5]: 38.8%
viability, T/C [6]: 6.62%
viability, T/C [7]: 36.2%
viability, T/C [8]: 33.4%
viability, T/C [9]: 32.2%
viability, T/C [10]: 30.9%
viability, T/C [11]: 38.4%
viability, T/C [12]: 7.19%
viability, T/C [13]: 28.8%
viability, T/C [14]: 27.6%
viability, T/C [15]: 28.4%
viability, T/C [16]: 27.2%
viability, T/C [17]: 32.8%
viability, T/C [18]: 6.05%
viability, T/C [19]: 27.4%
viability, T/C [20]: 26.9%
viability, T/C [21]: 28.2%
viability, T/C [22]: 25.9%
viability, T/C [23]: 23.1%
viability, T/C [24]: 3.48%
viability, T/C [25]: 23.1%
viability, T/C [26]: 21.1%
viability, T/C [27]: 22.7%
viability, T/C [28]: 24%
viability, T/C [29]: 20.9%
viability, T/C [30]: 2.65%
viability, T/C [31]: 15.8%
viability, T/C [32]: 18.1%
viability, T/C [33]: 19.4%
viability, T/C [34]: 17.7%
viability, T/C [35]: 12.7%
viability, T/C [36]: 1.03%

Reference: PubChem BioAssay AID1963985 (Molecular Pharmacology Branch, DTP, NCI, 2024)
